Data as given in paper PMC9516332 (Frontiers in Oncology, 2022).

How the values were obtained:
Experiment in all cases: Kinase panel profiling at 1 µmol/L (MSA or IMAP), percentage inhibition
Assay type in all cases: biochemical
[1] = target: panel of 255 wild-type kinases (Homo sapiens, UniProt Q15303); settings: kinase HER4; 1 µmol/L single concentration; read-out: %-inhibition at 1 µmol/L, HER4
[2] = target: panel of 255 wild-type kinases (Homo sapiens, UniProt Q15349); settings: kinase RSK3; 1 µmol/L single concentration; read-out: %-inhibition at 1 µmol/L, RSK3
[3] = target: panel of 255 wild-type kinases (Homo sapiens, UniProt P31749); settings: AKT1 kinase assay; 1 µmol/L single concentration; read-out: %-inhibition AKT1
[4] = target: panel of 255 wild-type kinases (Homo sapiens, UniProt P41240); settings: kinase CSK; 1 µmol/L single concentration; read-out: %-inhibition at 1 µmol/L, CSK
[5] = target: panel of 255 wild-type kinases (Homo sapiens, UniProt Q13153); settings: PAK1; 1 µmol/L single concentration; read-out: %-inhibition, PAK1
[6] = target: T1, panel of 255 wild-type kinases (Homo sapiens, UniProt P21709); settings: kinase EPHA1; 1 µmol/L single concentration; read-out: %-inhibition at 1 µmol/L, EPHA1
T1 sequence (P21709 26-976): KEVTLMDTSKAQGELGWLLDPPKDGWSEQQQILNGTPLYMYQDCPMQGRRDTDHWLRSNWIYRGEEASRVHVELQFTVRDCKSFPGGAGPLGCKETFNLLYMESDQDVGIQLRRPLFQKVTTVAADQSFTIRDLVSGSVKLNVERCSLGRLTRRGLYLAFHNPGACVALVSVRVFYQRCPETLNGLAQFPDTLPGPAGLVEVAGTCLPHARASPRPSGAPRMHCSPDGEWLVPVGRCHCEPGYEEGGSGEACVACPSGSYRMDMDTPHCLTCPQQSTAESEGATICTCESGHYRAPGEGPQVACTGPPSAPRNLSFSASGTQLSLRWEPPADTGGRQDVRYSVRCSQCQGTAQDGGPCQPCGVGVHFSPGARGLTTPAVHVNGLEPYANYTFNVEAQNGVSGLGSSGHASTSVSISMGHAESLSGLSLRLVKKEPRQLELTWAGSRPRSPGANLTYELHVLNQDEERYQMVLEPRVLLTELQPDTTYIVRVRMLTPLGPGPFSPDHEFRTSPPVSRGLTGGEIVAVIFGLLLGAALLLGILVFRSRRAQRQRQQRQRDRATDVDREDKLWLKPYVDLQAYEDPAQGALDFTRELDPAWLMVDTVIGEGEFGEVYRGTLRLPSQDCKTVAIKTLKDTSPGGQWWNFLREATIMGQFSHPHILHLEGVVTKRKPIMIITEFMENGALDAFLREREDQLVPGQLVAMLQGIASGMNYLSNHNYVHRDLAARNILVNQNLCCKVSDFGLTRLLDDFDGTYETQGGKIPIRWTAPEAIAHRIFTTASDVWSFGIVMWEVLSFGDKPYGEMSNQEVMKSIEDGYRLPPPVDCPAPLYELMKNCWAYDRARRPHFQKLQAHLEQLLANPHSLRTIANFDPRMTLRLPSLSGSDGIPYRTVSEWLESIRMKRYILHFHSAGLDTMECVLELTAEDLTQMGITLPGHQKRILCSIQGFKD

[7] = target: panel of 255 wild-type kinases (Homo sapiens, UniProt Q16539); settings: p38α; 1 µmol/L single concentration; read-out: %-inhibition, p38α
[8] = target: panel of 255 wild-type kinases (Homo sapiens, UniProt Q08345); settings: kinase DDR1; 1 µmol/L single concentration; read-out: %-inhibition at 1 µmol/L, DDR1
[9] = target: T2, panel of 255 wild-type kinases (Homo sapiens, UniProt Q9UF33); settings: kinase EPHA6; 1 µmol/L single concentration; read-out: %-inhibition at 1 µmol/L, EPHA6
T2 sequence (Q9UF33 23-1036): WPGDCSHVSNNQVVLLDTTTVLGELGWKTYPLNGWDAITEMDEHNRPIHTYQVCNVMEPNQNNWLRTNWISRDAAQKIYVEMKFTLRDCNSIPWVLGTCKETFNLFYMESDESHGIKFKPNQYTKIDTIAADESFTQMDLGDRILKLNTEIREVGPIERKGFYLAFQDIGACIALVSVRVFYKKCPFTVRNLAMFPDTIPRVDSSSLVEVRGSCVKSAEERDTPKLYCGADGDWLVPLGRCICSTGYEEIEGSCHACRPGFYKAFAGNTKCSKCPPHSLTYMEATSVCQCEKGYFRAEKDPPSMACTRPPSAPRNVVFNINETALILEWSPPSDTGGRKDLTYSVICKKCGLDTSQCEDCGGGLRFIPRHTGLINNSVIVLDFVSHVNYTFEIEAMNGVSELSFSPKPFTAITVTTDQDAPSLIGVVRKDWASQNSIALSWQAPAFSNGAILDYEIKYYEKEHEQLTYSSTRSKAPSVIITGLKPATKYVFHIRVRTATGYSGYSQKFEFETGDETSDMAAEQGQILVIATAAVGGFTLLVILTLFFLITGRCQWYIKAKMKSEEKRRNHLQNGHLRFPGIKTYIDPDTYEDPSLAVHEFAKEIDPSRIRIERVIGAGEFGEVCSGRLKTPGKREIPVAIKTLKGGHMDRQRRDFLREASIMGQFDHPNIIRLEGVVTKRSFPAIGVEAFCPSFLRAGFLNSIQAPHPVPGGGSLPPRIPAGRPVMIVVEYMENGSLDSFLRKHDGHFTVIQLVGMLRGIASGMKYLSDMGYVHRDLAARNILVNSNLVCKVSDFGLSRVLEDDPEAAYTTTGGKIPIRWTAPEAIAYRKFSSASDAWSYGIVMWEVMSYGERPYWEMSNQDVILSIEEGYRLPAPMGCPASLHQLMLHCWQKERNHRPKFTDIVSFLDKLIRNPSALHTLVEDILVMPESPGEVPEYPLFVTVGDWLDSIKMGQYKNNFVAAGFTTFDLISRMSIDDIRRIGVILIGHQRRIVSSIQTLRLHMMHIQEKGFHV

[10] = target: panel of 255 wild-type kinases (Homo sapiens, UniProt P22455); settings: kinase FGFR4; 1 µmol/L single concentration; read-out: %-inhibition at 1 µmol/L, FGFR4
[11] = target: panel of 255 wild-type kinases (Homo sapiens, UniProt Q8N568); settings: kinase DCAMKL2; 1 µmol/L single concentration; read-out: %-inhibition at 1 µmol/L, DCAMKL2

SMILES | inhibition at 1 µM [1] | inhibition at 1 µM [2] | inhibition at 1 µM [3] | inhibition at 1 µM [4] | inhibition at 1 µM [5] | inhibition at 1 µM [6] | inhibition at 1 µM [7] | inhibition at 1 µM [8] | inhibition at 1 µM [9] | inhibition at 1 µM [10] | inhibition at 1 µM [11]
COC(=O)N[C@@H](C)CNc1nccc(-c2cn(C(C)C)nc2-c2cc(Cl)cc(NS(C)(=O)=O)c2F)n1 [encorafenib] | 14% | -3.36% | -2% | 1.58% | 12% | 5.42% | 35% | 0.442% | 17% | 4.23% | -12%
CCc1nc(C(N)=O)c(Nc2ccc(N3CCC(N4CCN(C)CC4)CC3)c(OC)c2)nc1NC1CCOCC1 [gilteritinib] | 83% | 64% | -22% | 23% | 4% | 99% | 4% | 99% | 94% | 15% | 11%
CCn1c(=O)c(-c2cc(NC(=O)Nc3ccccc3)c(F)cc2Br)cc2cnc(NC)cc21 [ripretinib] | 36% | 12% | -6% | 50% | 0.719% | 78% | 88% | 90% | 99% | 11% | 2%

Second part, the molecule after the results:

inhibition at 1 µM [1] | inhibition at 1 µM [2] | inhibition at 1 µM [3] | inhibition at 1 µM [4] | inhibition at 1 µM [5] | inhibition at 1 µM [6] | inhibition at 1 µM [7] | inhibition at 1 µM [8] | inhibition at 1 µM [9] | inhibition at 1 µM [10] | inhibition at 1 µM [11] | SMILES
53% | 64% | -12% | 0.35% | 9% | 66% | 3% | 98% | 87% | 85% | 1.65% | CO[C@]1(C(=O)N[C@@H](C)c2ccc(-n3cc(F)cn3)nc2)CC[C@H](c2nc(C)cc(Nc3cc(C)[nH]n3)n2)CC1 [pralsetinib]
94% | 2.84% | -9% | 6% | -1.11% | 21% | 1.53% | 9% | 2.19% | 4% | 3.59% | Cc1cc(Nc2ncnc3ccc(NC4=NC(C)(C)CO4)cc23)ccc1Oc1ccn2ncnc2c1 [tucatinib]
11% | -5% | -5% | -1.11% | 5% | 4% | -8% | -0.162% | 2.34% | 4.66% | -13% | Cn1cnc2c(F)c(Nc3ccc(Br)cc3F)c(C(=O)NOCCO)cc21 [binimetinib]
2% | -1.47% | -6.35% | -0.289% | -3.29% | -3.59% | 2.59% | 3.8% | 5.35% | 9% | 6.52% | Cc1nc(NC(=O)N2CCC[C@H]2C(N)=O)sc1-c1ccnc(C(C)(C)C(F)(F)F)c1 [alpelisib]
103% | 27% | -22% | 18% | 0.38% | 79% | 39% | 101% | 98% | -4.42% | 1.42% | COc1cc2ncnc(Nc3ccc(F)c(Cl)c3)c2cc1NC(=O)/C=C/CN1CCCCC1 [dacomitinib]
